# Results from ChEMBL document CHEMBL4024755, “Pharmacophore Hybridization To Discover Novel Topoisomerase II Poisons with Promising Antiproliferative Activity” (J Med Chem, 2018).
# Activity calls are given as the source filed them. The calls are words filed in the database; no cut-off is given here.
# Columns and labels:
# HeLa [1] = test: Antiproliferative activity against human HeLa cells after 72 hrs by MTT assay; format: functional, cell-based
# [2] = molecular target: T1, DNA topoisomerase 2-alpha (Homo sapiens, UniProt P11388); test: Poison activity at human Topo2alpha expressed in baculovirus-infected insect cells using pBR322 as substrate assessed as topo2/DNA cleavage complex generation after 6 minutes by ethidium bromide staining based agarose gel electrophoresis
# A549 = test: Antiproliferative activity against human A549 cells after 72 hrs by MTT assay; format: functional, cell-based; details: A549, 72 h
# [3] = molecular target: T1, DNA topoisomerase 2-alpha; test: Inhibition of human topoisomerase 2alpha expressed in baculovirus-infected insect cells assessed as reduction in pBR322 supercoiled DNA relaxation after 60 mins by ethidium bromide staining based agarose gel electrophoresis
# Bos taurus [4] = organism: Bos taurus; test: Binding affinity to calf thymus DNA at 50 uM by UV-spectrophotometric analysis
# MCF7 = test: Antiproliferative activity against human MCF7 cells after 72 hrs by MTT assay; format: functional, cell-based; details: MCF7, 72 h
# DU-145 = test: Antiproliferative activity against human DU145 cells after 72 hrs by MTT assay; format: functional, cell-based; details: DU-145, 72 h
# Bos taurus [5] = organism: Bos taurus; test: Binding affinity to calf thymus DNA in absence of topo2 enzyme by circular dichroism titration analysis
# [6] = molecular target: T1, DNA topoisomerase 2-alpha; test: Poison activity at human Topo2alpha expressed in baculovirus-infected insect cells using pBR322 as substrate assessed as concentration required to observe the same amount of topo2/DNA cleavage complex generated by etoposide at 20 uM after 6 minutes by ethidium bromide staining based agarose gel electrophoresis
# HeLa [7] = test: Inhibition of human of DNA topoisomerase 2 in human HeLa cells assessed as induction of H2AX phosphorylation at 10 uM after 90 mins by NuPAGE based electrophoresis; format: cell-based
# T1 sequence (P11388 whole entry): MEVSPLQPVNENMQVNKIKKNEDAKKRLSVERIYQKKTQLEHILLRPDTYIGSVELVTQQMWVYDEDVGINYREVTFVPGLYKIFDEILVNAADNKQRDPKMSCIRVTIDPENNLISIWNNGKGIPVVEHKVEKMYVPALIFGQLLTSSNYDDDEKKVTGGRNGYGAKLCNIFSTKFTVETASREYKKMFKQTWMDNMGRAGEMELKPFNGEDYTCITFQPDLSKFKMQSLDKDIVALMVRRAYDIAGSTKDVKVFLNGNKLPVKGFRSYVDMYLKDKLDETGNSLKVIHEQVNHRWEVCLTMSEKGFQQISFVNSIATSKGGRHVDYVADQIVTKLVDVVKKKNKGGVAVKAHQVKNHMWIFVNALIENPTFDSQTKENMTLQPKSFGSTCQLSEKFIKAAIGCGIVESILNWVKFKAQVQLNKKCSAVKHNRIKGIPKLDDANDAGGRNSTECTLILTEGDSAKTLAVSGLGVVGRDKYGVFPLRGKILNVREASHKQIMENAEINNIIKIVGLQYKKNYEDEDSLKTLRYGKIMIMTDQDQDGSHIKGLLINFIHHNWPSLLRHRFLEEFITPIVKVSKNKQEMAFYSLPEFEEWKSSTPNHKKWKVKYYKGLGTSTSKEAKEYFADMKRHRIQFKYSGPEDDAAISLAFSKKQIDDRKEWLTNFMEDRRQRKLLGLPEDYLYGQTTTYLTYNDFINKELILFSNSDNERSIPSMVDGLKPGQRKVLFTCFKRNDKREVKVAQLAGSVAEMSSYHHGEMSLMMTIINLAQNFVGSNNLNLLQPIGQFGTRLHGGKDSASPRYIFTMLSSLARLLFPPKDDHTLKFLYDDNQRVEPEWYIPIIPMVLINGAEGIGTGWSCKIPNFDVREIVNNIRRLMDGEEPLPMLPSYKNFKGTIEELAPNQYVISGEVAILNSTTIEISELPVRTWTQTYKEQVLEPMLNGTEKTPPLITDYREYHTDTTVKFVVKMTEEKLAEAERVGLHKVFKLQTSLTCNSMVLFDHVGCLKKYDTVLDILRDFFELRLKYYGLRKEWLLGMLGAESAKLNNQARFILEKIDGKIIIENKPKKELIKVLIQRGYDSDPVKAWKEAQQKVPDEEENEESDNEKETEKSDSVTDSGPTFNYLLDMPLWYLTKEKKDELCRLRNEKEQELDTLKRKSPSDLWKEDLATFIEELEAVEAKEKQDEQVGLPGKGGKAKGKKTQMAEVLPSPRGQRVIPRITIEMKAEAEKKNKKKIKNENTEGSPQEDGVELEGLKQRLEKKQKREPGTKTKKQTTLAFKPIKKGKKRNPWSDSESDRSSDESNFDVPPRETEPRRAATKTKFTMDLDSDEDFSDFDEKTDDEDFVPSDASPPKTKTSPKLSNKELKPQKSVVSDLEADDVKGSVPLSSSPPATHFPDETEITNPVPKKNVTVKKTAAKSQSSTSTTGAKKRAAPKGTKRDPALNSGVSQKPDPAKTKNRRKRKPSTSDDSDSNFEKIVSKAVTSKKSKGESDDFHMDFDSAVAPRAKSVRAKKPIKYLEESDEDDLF
SMILES,IC50 (HeLa [1]) [µM],Activity [2],IC50 (A549) [µM],IC50 [3] [µM],Activity (Bos taurus [4]),IC50 (MCF7) [µM],IC50 (DU-145) [µM],Activity (Bos taurus [5]),Activity [6] [µM],inhibition (HeLa [7])
O=C1NC(=S)NC(=O)C1C(=O)Nc1ccccc1 [MERBARONE],62.3,inactive,40,120,inactive,83.9,18.9,,,
COc1cc([C@@H]2c3cc4c(cc3[C@@H](O[C@@H]3O[C@@H]5CO[C@@H](C)O[C@H]5[C@H](O)[C@H]3O)[C@H]3COC(=O)[C@H]23)OCO4)cc(OC)c1O [ETOPOSIDE],2.4,,1.3,,inactive,10.5,1,,,
COc1cc(NC(=O)c2c(O)n(-c3ccccc3)c(=S)n(-c3ccccc3)c2=O)cc(OC)c1O,18.1,,17.5,120,inactive,53.5,26.7,inactive,200,
O=C(Nc1cccc(O)c1)c1c(O)n(-c2ccccc2)c(=S)n(-c2ccccc2)c1=O,39.1,inactive,59.4,200,inactive,94.2,49.6,inactive,,
O=C(Nc1ccc(O)cc1)c1c(O)n(-c2ccccc2)c(=S)n(-c2ccccc2)c1=O,42.9,,37.1,150,inactive,66.1,42.5,inactive,200,
O=C(Nc1ccccc1)c1c(O)n(-c2ccccc2)c(=S)n(-c2ccccc2)c1=O,10.8,,9.2,5,inactive,13.6,16.8,inactive,200,Active
COc1cccc(NC(=O)c2c(O)n(-c3ccccc3)c(=S)n(-c3ccccc3)c2=O)c1,8.5,,6.9,30,inactive,14,12.5,inactive,100,
